Data: US20240116985A1, “STAPLED PEPTIDES AND METHODS THEREOF” (priority 2020, published 2024)
pIC50: −log10 of the molar value. ≈ marks a conversion by molar mass, not a printed value. Like-named read-outs stand apart in the source and are kept apart here.

Experiments:
[1] = CHI Log D procedure; format: physicochemical; conditions: for chromatographic logD: pH 7.4, CHI Log D; for CHI Log D: pH 7.4
[2] = biological target: T1, full-length beta-Catenin (Uniprot ID P35222) (Homo sapiens, UniProt P35222); experiment: Fluorescence polarization IC50 (beta-catenin / 5FAM-TCF4 10-53 competition); format: binding
T1 construct: 10 nM full-length beta-Catenin (Uniprot ID P35222)
T1 sequence (P35222 1-781): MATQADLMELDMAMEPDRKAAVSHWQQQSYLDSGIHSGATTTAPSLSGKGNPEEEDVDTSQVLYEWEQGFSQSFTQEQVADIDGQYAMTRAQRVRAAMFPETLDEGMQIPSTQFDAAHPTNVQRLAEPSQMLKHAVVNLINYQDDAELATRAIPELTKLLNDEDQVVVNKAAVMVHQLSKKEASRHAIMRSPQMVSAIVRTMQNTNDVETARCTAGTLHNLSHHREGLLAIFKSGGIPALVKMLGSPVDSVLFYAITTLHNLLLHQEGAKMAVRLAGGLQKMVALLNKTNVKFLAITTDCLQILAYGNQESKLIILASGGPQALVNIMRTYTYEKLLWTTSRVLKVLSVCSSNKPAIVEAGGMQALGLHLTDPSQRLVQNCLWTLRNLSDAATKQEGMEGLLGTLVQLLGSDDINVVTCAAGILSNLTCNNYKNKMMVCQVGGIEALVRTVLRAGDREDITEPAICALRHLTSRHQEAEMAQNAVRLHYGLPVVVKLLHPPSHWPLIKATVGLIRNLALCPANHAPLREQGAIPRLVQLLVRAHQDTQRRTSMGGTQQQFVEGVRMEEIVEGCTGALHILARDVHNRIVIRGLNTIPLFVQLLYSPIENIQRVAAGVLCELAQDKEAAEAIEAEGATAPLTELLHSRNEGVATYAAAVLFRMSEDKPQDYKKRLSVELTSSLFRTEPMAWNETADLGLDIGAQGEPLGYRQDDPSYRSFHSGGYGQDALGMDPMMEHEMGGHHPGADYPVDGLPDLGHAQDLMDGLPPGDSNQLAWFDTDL

[3] = Solubility in PBS; format: physicochemical
Summary of the method: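 HPLC quantitation of peptide remaining in the PBS supernatant after ultracentrifugation, referenced to a 50 μM solution in DMSO.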

[4] = fluorescence polarization, read-out: beta-Catenin FP IC50

chromatographic logD [1] | pIC50 [2, 4] | Solubility ([3]; Solubility (uM)) [µM] | CHI Log D [1] | pIC50 ([2]; read-out: FP EC50) | Solubility [3] [µM] | Structure (SMILES)
2.04 | 7.03 | 28 (≈ 51.6 µg/mL) |  |  |  | CC(=O)N1CCC[C@]12CC=CCCCC1(CCCC=CCCCCCC[C@@](C)(C(=O)N[C@@H](Cc3ccccc3)C(=O)N[C@@H](Cc3csc4ccccc34)C(=O)N[C@@H](CCC(N)=O)C(N)=O)NC(=O)[C@H](CCC(N)=O)NC(=O)[C@H](Cc3ccccc3)NC(=O)[C@H](C)NC(=O)[C@H](C)NC(=O)[C@H](CCC(=O)O)NC(=O)[C@H](CC(=O)O)NC1=O)NC(=O)[C@H](C)NC(=O)[C@H](CC(=O)O)NC2=O (stereo partly drawn) [I-406, Ac-PL3-Asp-Ala-B5-Asp-Glu-Ala-Ala-Phe-Gln-S8-Phe-BztA-Gln-NH2]
 | 6.92 |  | 2.674 | 6.92 | 50 (≈ 87.8 µg/mL) | CC[C@H](C)[C@@H]1NC(=O)[C@H](CC(=O)O)NC(=O)[C@]2(CC=CCCCC3(CCCC=CCCCCCC[C@@](C)(C(=O)N[C@@H](Cc4ccccc4)C(=O)N[C@@H](Cc4csc5ccccc45)C(N)=O)NC(=O)[C@H](CCC(N)=O)NC(=O)[C@H](Cc4ccccc4)NC(=O)[C@H](C)NC(=O)[C@H](C)NC(=O)[C@H](CCC(=O)O)NC(=O)[C@H](CC(=O)O)NC3=O)NC1=O)CCCN2C(C)=O (stereo partly drawn) [I-408, Ac-PL3-Asp-Ile-B5-Asp-Glu-Ala-Ala-Phe-Gln-S8-Phe-BztA-NH2]
 | 7.15 |  | 2.741 | 7.15 | 48 (≈ 84.2 µg/mL) | CC[C@H](C)[C@@H]1NC(=O)[C@H](CC(=O)O)NC(=O)[C@]2(CC=CCCCC3(CCCC=CCCCCCC[C@@](C)(C(=O)N[C@@H](Cc4ccccc4)C(=O)N[C@@H](Cc4csc5ccccc45)C(N)=O)NC(=O)[C@H](CCC(N)=O)NC(=O)[C@H](Cc4ccccc4)NC(=O)[C@H](C)NC(=O)[C@H](C)NC(=O)[C@H](CCC(=O)O)NC(=O)[C@H](CC(=O)O)NC3=O)NC1=O)CCCN2C(C)=O (stereo partly drawn) [I-409, Ac-PL3-Asp-Ile-B5-Asp-Glu-Ala-Ala-Phe-Gln-S8-Phe-BztA-NH2]
2.26 | 7.30 |  |  |  | 50 (≈ 93.5 µg/mL) | CC(=O)N1CCC[C@]12CC=CCCCC1(CCCC=CCCCCCC[C@@](C)(C(=O)N[C@@H](Cc3ccccc3)C(=O)N[C@@H](Cc3csc4ccccc34)C(=O)N[C@@H](CCC(N)=O)C(N)=O)NC(=O)[C@H](CCC(N)=O)NC(=O)[C@H](Cc3ccccc3)NC(=O)[C@H](C)NC(=O)[C@H](C)NC(=O)[C@H](CCC(=O)O)NC(=O)[C@H](CC(=O)O)NC1=O)NC(=O)[C@H](C(C)C)NC(=O)[C@H](CC(=O)O)NC2=O (stereo partly drawn) [I-410, Ac-PL3-Asp-Val-B5-Asp-Glu-Ala-Ala-Phe-Gln-S8-Phe-BztA-Gln-NH2]
2.57 | 6.72 |  |  |  | 50 (≈ 91.3 µg/mL) | CCCC[C@@H]1NC(=O)[C@H](CC(=O)O)NC(=O)[C@]2(CC=CCCCC3(CCCC=CCCCCCC[C@@](C)(C(=O)N[C@@H](Cc4ccccc4)C(=O)N[C@@H](Cc4csc5ccccc45)C(=O)N[C@@H](CCC(N)=O)C(N)=O)NC(=O)[C@H](C)NC(=O)[C@H](Cc4ccccc4)NC(=O)[C@H](C)NC(=O)[C@H](C)NC(=O)[C@H](CCC(=O)O)NC(=O)[C@H](CC(=O)O)NC3=O)NC1=O)CCCN2C(C)=O (stereo partly drawn) [I-411, Ac-PL3-Asp-nLeu-B5-Asp-Glu-Ala-Ala-Phe-Ala-S8-Phe-BztA-Gln-NH2]
2 | 7.05 | 31 (≈ 57.4 µg/mL) |  |  |  | CC(=O)N1CCC[C@]12CC=CCCCC1(CCCC=CCCCCCC[C@@](C)(C(=O)N[C@@H](Cc3ccccc3)C(=O)N[C@@H](Cc3csc4ccccc34)C(=O)N[C@@H](CCC(N)=O)C(N)=O)NC(=O)[C@H](CCC(N)=O)NC(=O)[C@H](Cc3ccccc3)NC(=O)[C@H](C)NC(=O)[C@H](C)NC(=O)[C@H](Cc3nn[nH]n3)NC(=O)[C@H](CC(=O)O)NC1=O)NC(=O)[C@H](C)NC(=O)[C@H](CC(=O)O)NC2=O (stereo partly drawn) [I-413, Ac-PL3-Asp-Ala-B5-Asp-tetz-Ala-Ala-Phe-Gln-S8-Phe-BztA-Gln-NH2]
 | 5.47 |  | 2.096 | 5.47 | 19 (≈ 35.4 µg/mL) | CC(=O)N1CCC[C@]12CC=CCCCC1(CCCC=CCCCCCC[C@@](C)(C(=O)N[C@@H](Cc3ccccc3)C(=O)N[C@@H](Cc3csc4ccccc34)C(=O)N[C@@H](CCC(N)=O)C(N)=O)NC(=O)[C@H](CCC(N)=O)NC(=O)[C@H](Cc3ccccc3)NC(=O)[C@H](C)NC(=O)[C@H](C)NC(=O)[C@H](CCC(=O)O)NC(=O)[C@H](Cc3nn[nH]n3)NC1=O)NC(=O)[C@H](C)NC(=O)[C@H](CC(=O)O)NC2=O (stereo partly drawn) [I-414, Ac-PL3-Asp-Ala-B5-tetz-Glu-Ala-Ala-Phe-Gln-S8-Phe-BztA-Gln-NH2]
 | 5.66 |  | 2.125 | 5.66 | 45 (≈ 83.9 µg/mL) | CC(=O)N1CCC[C@]12CC=CCCCC1(CCCC=CCCCCCC[C@@](C)(C(=O)N[C@@H](Cc3ccccc3)C(=O)N[C@@H](Cc3csc4ccccc34)C(=O)N[C@@H](CCC(N)=O)C(N)=O)NC(=O)[C@H](CCC(N)=O)NC(=O)[C@H](Cc3ccccc3)NC(=O)[C@H](C)NC(=O)[C@H](C)NC(=O)[C@H](CCC(=O)O)NC(=O)[C@H](Cc3nn[nH]n3)NC1=O)NC(=O)[C@H](C)NC(=O)[C@H](CC(=O)O)NC2=O (stereo partly drawn) [I-415, Ac-PL3-Asp-Ala-B5-tetz-Glu-Ala-Ala-Phe-Gln-S8-Phe-BztA-Gln-NH2]
 | 6.83 |  | 2.089 | 6.83 | 32 (≈ 59.2 µg/mL) | CC(=O)N1CCC[C@]12CC=CCCCC1(CCCC=CCCCCCC[C@@](C)(C(=O)N[C@@H](Cc3ccccc3)C(=O)N[C@@H](Cc3csc4ccccc34)C(=O)N[C@@H](Cc3c[nH]cn3)C(N)=O)NC(=O)[C@H](CCC(N)=O)NC(=O)[C@H](Cc3ccccc3)NC(=O)[C@H](C)NC(=O)[C@H](C)NC(=O)[C@H](CCC(=O)O)NC(=O)[C@H](CC(=O)O)NC1=O)NC(=O)[C@H](C)NC(=O)[C@H](CC(=O)O)NC2=O (stereo partly drawn) [I-418, Ac-PL3-Asp-Ala-B5-Asp-Glu-Ala-Ala-Phe-Gln-S8-Phe-BztA-His-NH2]
2.16 | 6.89 | 24 (≈ 43.8 µg/mL) |  |  |  | CC(=O)N1CCC[C@]12CC=CCCCC1(CCCC=CCCCCCC[C@@](C)(C(=O)N[C@@H](Cc3ccccc3)C(=O)N[C@@H](Cc3csc4ccccc34)C(=O)N[C@@H](Cc3c[nH]cn3)C(N)=O)NC(=O)[C@H]([C@@H](C)O)NC(=O)[C@H](Cc3ccccc3)NC(=O)[C@H](C)NC(=O)[C@H](C)NC(=O)[C@H](CCC(=O)O)NC(=O)[C@H](CC(=O)O)NC1=O)NC(=O)[C@H](C)NC(=O)[C@H](CC(=O)O)NC2=O (stereo partly drawn) [I-420, Ac-PL3-Asp-Ala-B5-Asp-Glu-Ala-Ala-Phe-Thr-S8-Phe-BztA-His-NH2]
 | 7.00 |  | 2.087 | 7.00 | 36 (≈ 66.1 µg/mL) | CC(=O)N1CCC[C@]12CC=CCCCC1(CCCC=CCCCCCC[C@@](C)(C(=O)N[C@@H](Cc3ccccc3)C(=O)N[C@@H](Cc3csc4ccccc34)C(=O)N[C@@H](Cc3c[nH]cn3)C(N)=O)NC(=O)[C@H](CC(N)=O)NC(=O)[C@H](Cc3ccccc3)NC(=O)[C@H](C)NC(=O)[C@H](C)NC(=O)[C@H](CCC(=O)O)NC(=O)[C@H](CC(=O)O)NC1=O)NC(=O)[C@H](C)NC(=O)[C@H](CC(=O)O)NC2=O (stereo partly drawn) [I-421, Ac-PL3-Asp-Ala-B5-Asp-Glu-Ala-Ala-Phe-Asn-S8-Phe-BztA-His-NH2]
 | 7.57 |  | 2.136 | 7.57 | 24 (≈ 44.1 µg/mL) | CC(=O)N1CCC[C@]12CC=CCCCC1(CCCC=CCCCCCC[C@@](C)(C(=O)N[C@@H](Cc3ccccc3)C(=O)N[C@@H](Cc3csc4ccccc34)C(=O)N[C@@H](Cc3c[nH]cn3)C(N)=O)NC(=O)[C@H](CC(N)=O)NC(=O)[C@H](Cc3ccccc3)NC(=O)[C@H](C)NC(=O)[C@H](C)NC(=O)[C@H](CCC(=O)O)NC(=O)[C@H](CC(=O)O)NC1=O)NC(=O)[C@H](C)NC(=O)[C@H](CC(=O)O)NC2=O (stereo partly drawn) [I-422, Ac-PL3-Asp-Ala-B5-Asp-Glu-Ala-Ala-Phe-Asn-S8-Phe-BztA-His-NH2]
2.09 | 6.98 | 48 (≈ 87.1 µg/mL) |  |  |  | CC(=O)N1CCC[C@]12CC=CCCCC1(CCCC=CCCCCCC[C@@](C)(C(=O)N[C@@H](Cc3ccccc3)C(=O)N[C@@H](Cc3csc4ccccc34)C(=O)N[C@@H](CCC(N)=O)C(N)=O)NC(=O)[C@H]([C@@H](C)O)NC(=O)[C@H](Cc3ccccc3)NC(=O)[C@H](C)NC(=O)[C@H](C)NC(=O)[C@H](CCC(=O)O)NC(=O)[C@H](CC(=O)O)NC1=O)NC(=O)[C@H](C)NC(=O)[C@H](CC(=O)O)NC2=O (stereo partly drawn) [I-423, Ac-PL3-Asp-Ala-B5-Asp-Glu-Ala-Ala-Phe-Thr-S8-Phe-BztA-Gln-NH2]
